Data from ChEMBL document CHEMBL4052791, “GNE-886: A Potent and Selective Inhibitor of the Cat Eye Syndrome Chromosome Region Candidate 2 Bromodomain (CECR2)” (ACS Med Chem Lett, 2017).
Values after ≈ are worked out from the molar mass of the structure shown.

Experiments:
[1] = biological target: T1, Bromodomain-containing protein 4 (Homo sapiens, UniProt O60885); assay: Inhibition of recombinant human N-terminal His6-FLAG-tagged BRD4 bromodomain 1 expressed in Rosetta2 (DE3) pLysS cells after 60 mins by TR-FRET assay; assay type: cell-based
[2] = biological target: T2, Bromodomain-containing protein 9 (Homo sapiens, UniProt Q9H8M2); assay: Inhibition of recombinant human N-terminal His6-FLAG-tagged BRD9 (unknown origin) expressed in Rosetta2 (DE3) pLysS cells after 60 mins by TR-FRET assay; assay type: cell-based
T2 sequence (Q9H8M2 whole entry): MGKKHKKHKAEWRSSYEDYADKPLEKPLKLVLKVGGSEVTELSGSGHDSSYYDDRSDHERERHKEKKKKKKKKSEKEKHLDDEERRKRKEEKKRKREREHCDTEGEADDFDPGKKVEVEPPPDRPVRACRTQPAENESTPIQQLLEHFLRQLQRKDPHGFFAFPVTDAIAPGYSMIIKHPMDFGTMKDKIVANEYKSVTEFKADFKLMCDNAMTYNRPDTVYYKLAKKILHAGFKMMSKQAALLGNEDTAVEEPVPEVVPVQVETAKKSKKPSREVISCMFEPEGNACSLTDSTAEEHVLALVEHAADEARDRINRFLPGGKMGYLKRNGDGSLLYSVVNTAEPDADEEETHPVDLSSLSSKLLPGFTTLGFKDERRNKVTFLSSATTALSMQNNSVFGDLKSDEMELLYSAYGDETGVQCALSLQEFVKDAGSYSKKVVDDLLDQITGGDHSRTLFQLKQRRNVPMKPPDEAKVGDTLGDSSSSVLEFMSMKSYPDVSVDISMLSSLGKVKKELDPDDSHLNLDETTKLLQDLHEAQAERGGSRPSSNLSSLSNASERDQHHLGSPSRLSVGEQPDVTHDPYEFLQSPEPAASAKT

[3] = biological target: T1, Bromodomain-containing protein 4; assay: Inhibition of recombinant human N-terminal His6-FLAG-tagged BRD4 bromodomain 2 (unknown origin) expressed in Rosetta2 (DE3) pLysS cells after 60 mins by TR-FRET assay; assay type: cell-based
[4] = biological target: T3, Transcription initiation factor TFIID subunit 1 (Homo sapiens, UniProt P21675); assay: Inhibition of recombinant human N-terminal His6-FLAG-tagged TAF1 bromodomain 2 (unknown origin) expressed in Rosetta2 (DE3) pLysS cells after 60 mins by TR-FRET assay; assay type: cell-based
[5] = biological target: T4, Chromatin remodeling regulator CECR2 (Homo sapiens, UniProt Q9BXF3); assay: Inhibition of recombinant human N-terminal His6-FLAG-tagged CECR2 expressed in Rosetta2 (DE3) pLysS cells after 60 mins by TR-FRET assay; assay type: cell-based
[6] = biological target: T4, Chromatin remodeling regulator CECR2; assay: Binding affinity to ZsGreen fused-CECR2 bromodomain (M404 to H515 residues) (unknown origin) expressed in human U2OS-C433 cells co expressing (MDPKKKRKVDPKKRKVDPKKKRKV) assessed as induction of protein bromodomain localization from chromatin by measuring formation of large nuclear puncta by fluorescence based assay; assay type: cell-based
[7] = biological target: T5, Bromodomain-containing protein 7 (Homo sapiens, UniProt Q9NPI1); assay: Binding affinity to human DNA-tagged BRD7 (125 to 254 residues) expressed in mammalian expression system by BROMOscan assay
T5 sequence (Q9NPI1 whole entry): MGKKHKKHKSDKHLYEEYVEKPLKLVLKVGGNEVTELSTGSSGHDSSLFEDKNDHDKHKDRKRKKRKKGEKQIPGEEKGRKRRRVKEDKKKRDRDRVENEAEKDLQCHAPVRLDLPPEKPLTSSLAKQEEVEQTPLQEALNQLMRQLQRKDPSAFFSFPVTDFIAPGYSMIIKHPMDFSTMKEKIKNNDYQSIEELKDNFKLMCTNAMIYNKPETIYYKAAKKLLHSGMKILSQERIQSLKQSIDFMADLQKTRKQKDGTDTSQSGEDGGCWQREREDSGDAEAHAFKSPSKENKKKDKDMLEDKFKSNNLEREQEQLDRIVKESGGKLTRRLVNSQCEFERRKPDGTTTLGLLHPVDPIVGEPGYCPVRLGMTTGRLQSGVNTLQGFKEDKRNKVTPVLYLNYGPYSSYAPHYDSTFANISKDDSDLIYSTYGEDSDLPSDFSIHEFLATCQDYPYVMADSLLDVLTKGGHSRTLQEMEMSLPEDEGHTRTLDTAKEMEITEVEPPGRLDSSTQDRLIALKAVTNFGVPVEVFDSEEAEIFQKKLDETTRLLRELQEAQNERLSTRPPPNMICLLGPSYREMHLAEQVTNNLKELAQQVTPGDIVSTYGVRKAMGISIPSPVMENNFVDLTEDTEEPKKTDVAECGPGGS

[8] = Kinetic solubility of the compound; assay type: physicochemical; details: read-out: Kinetic_solubility
[9] = biological target: T2, Bromodomain-containing protein 9; assay: Binding affinity to human DNA-tagged BRD9 isoform 1 (130 to 259 residues) expressed in bacterial expression system by BROMOscan assay
[10] = biological target: Transcription initiation factor TFIID subunit 1-like (Homo sapiens, UniProt Q8IZX4); assay: Binding affinity to human DNA-tagged TAF1L bromodomain 2 (1523 to 1654 residues) expressed in bacterial expression system by BROMOscan assay
[11] = biological target: T3, Transcription initiation factor TFIID subunit 1; assay: Binding affinity to human DNA-tagged TAF1 bromodomain 2 (1521 to 1656 residues) expressed in bacterial expression system by BROMOscan assay

T4 sequence (Q9BXF3 whole entry, the tested form may be a part): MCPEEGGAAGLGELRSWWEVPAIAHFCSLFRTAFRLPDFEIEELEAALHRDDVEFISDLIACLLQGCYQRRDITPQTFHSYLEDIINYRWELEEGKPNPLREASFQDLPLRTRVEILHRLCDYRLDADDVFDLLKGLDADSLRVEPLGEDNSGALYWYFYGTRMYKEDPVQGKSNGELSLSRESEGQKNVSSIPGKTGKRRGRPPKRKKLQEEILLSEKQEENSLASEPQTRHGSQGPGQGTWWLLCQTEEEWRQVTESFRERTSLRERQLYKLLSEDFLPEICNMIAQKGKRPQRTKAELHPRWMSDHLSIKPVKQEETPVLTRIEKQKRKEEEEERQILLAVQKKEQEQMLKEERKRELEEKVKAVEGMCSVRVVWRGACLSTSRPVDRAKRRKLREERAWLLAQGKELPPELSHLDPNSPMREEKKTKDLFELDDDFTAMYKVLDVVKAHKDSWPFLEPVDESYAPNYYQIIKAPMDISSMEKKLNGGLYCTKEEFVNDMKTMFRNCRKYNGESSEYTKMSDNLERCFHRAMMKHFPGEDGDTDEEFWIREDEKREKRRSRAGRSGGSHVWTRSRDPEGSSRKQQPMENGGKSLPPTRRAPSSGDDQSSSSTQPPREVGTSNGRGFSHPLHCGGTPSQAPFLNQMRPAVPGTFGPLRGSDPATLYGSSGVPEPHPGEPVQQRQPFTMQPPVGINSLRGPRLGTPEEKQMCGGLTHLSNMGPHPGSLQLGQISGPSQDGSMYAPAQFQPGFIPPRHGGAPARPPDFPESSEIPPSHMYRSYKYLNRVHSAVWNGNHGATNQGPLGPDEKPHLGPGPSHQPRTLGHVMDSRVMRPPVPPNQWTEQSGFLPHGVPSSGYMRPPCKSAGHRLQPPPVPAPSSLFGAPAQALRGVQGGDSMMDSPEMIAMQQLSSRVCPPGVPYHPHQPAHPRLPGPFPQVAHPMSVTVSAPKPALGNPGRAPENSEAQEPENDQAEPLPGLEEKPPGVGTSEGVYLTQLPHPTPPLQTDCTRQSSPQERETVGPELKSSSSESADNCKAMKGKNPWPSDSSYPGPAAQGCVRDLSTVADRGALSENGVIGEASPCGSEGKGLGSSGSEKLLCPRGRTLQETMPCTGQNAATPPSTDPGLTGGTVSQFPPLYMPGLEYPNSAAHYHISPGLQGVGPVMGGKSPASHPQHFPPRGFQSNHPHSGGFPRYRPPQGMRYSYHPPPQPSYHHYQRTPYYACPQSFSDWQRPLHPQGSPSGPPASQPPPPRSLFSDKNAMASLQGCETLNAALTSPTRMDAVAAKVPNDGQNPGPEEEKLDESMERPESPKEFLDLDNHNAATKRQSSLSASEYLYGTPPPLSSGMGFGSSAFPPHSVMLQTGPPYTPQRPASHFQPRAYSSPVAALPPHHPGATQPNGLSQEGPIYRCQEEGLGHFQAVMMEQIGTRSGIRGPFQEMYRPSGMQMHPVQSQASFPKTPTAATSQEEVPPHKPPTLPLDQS
T3 sequence (P21675 whole entry): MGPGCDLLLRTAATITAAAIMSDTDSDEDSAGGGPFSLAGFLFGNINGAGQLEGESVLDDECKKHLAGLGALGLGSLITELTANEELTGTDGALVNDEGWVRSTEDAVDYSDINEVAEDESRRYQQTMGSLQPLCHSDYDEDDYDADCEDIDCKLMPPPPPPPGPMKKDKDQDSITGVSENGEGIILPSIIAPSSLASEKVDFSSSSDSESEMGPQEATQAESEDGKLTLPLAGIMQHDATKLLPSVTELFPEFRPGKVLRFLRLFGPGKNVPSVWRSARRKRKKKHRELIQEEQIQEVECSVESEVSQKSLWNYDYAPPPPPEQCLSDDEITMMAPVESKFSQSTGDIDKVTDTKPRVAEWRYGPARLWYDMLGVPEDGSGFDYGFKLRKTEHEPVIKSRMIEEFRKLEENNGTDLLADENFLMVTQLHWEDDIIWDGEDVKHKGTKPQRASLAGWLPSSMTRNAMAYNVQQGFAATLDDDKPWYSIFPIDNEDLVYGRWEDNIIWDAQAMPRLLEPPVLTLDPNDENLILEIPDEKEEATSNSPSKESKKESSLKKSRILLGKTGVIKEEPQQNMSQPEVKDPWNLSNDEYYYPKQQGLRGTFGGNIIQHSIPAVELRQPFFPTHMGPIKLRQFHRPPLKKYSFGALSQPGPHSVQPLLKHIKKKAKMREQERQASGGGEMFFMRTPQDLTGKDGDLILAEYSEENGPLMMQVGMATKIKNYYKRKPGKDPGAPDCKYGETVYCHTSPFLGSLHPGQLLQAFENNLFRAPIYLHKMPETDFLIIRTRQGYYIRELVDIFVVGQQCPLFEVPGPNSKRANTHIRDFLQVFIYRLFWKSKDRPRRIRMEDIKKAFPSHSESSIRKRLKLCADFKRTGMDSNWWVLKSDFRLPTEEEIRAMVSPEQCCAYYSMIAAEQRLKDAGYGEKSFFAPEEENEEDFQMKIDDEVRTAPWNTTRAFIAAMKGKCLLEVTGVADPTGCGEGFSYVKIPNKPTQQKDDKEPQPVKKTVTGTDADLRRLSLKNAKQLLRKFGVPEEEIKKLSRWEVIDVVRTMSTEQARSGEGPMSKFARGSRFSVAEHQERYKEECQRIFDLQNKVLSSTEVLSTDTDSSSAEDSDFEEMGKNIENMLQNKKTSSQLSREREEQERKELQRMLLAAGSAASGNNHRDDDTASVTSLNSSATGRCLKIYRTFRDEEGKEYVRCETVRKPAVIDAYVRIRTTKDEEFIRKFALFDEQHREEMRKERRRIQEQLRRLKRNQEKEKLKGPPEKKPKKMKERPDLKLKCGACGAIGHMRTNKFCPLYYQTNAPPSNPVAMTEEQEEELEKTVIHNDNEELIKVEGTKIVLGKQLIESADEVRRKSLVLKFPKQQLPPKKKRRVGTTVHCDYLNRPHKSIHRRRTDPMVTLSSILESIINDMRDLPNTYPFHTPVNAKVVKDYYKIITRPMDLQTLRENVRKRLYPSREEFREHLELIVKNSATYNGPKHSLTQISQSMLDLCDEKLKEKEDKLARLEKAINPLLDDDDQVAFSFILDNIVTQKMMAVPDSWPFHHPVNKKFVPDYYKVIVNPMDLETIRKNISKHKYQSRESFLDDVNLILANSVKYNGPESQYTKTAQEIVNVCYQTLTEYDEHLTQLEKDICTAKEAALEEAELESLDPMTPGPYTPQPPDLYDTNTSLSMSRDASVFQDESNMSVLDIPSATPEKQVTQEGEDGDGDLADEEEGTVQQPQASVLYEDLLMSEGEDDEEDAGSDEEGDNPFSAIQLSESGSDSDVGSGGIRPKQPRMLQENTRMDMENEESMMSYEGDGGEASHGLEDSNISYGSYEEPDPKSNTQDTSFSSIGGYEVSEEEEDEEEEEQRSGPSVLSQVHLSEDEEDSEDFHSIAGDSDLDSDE

| IC50 [1] | IC50 [2] | IC50 [3] | IC50 [4] | IC50 [5] | SMILES | EC50 [6] | Kd [7] | solubility kinetic [8] | Kd [9] | Kd [10] | Kd [11] |
| --- | --- | --- | --- | --- | --- | --- | --- | --- | --- | --- | --- |
| > 20000 nM | 5700 nM |  | 2800 nM | 55 nM | C=CCn1cc(C(=O)N(C)C2CCN(c3cc(C(C)(C)C)ncn3)CC2)c2cc[nH]c2c1=O |  |  |  |  |  |  |
| > 20000 nM | 6900 nM |  | 3400 nM | 59 nM | C=CCn1cc(C(=O)N(C)C2CCN(c3cc(-n4cccn4)ncn3)CC2)c2cc[nH]c2c1=O |  |  |  |  |  |  |
| > 20000 nM | 11400 nM |  | 3400 nM | 200 nM | C=CCn1cc(C(=O)N(C)C2CCN(c3cc(C(F)(F)F)ncn3)CC2)c2cc[nH]c2c1=O |  |  |  |  |  |  |
| > 20000 nM | 1500 nM |  | 2500 nM | 44 nM | C=CCn1cc(C(=O)N(C)C2CCN(c3cc(-c4ccccc4F)ncn3)CC2)c2cc[nH]c2c1=O |  |  |  |  |  |  |
| > 20000 nM | 8500 nM |  | 2800 nM | 130 nM | C=CCn1cc(C(=O)N(C)C2CCN(c3cc(OC)ncn3)CC2)c2cc[nH]c2c1=O |  |  |  |  |  |  |
| > 20000 nM | 7600 nM |  | 5100 nM | 93 nM | C=CCn1cc(C(=O)N(C)C2CCN(c3cc(C)nc(C)n3)CC2)c2cc[nH]c2c1=O |  |  |  |  |  |  |
| > 20000 nM | 3300 nM |  | 2500 nM | 45 nM | C=CCn1cc(C(=O)N(C)C2CCN(c3cc(-c4ccco4)ncn3)CC2)c2cc[nH]c2c1=O |  |  |  |  |  |  |
| > 20000 nM | 5000 nM |  | 2100 nM | 240 nM | C=CCn1cc(C(=O)N(C)C2CCN(c3ccncn3)CC2)c2cc[nH]c2c1=O |  |  |  |  |  |  |
| > 20000 nM | 2600 nM |  | 2600 nM | 45 nM | C=CCn1cc(C(=O)N(C)C2CCN(c3cc(-c4ccccc4OC)ncn3)CC2)c2cc[nH]c2c1=O |  |  |  |  |  |  |
| > 20000 nM | 5800 nM |  | 2700 nM | 71 nM | C=CCn1cc(C(=O)N(C)C2CCN(c3cc(OC)nc(C)n3)CC2)c2cc[nH]c2c1=O |  |  |  |  |  |  |
| > 20000 nM | 6100 nM |  | 1800 nM | 83 nM | C=CCn1cc(C(=O)N(C)C2CCN(c3cc(C4CC4)ncn3)CC2)c2cc[nH]c2c1=O |  |  |  |  |  |  |
| > 20000 nM | 1700 nM |  | 2400 nM | 46 nM | C=CCn1cc(C(=O)N(C)C2CCN(c3cc(-c4ccccc4C)ncn3)CC2)c2cc[nH]c2c1=O |  |  |  |  |  |  |

The remaining lines, values behind:

| SMILES | IC50 [1] | IC50 [2] | IC50 [3] | IC50 [4] | IC50 [5] | EC50 [6] | Kd [7] | solubility kinetic [8] | Kd [9] | Kd [10] | Kd [11] |
| --- | --- | --- | --- | --- | --- | --- | --- | --- | --- | --- | --- |
| CC(C)N1CCC(N(C)C(=O)c2cn(C)c(=O)c3[nH]ccc23)CC1 | > 20000 nM | 17800 nM | 19200 nM | 8400 nM | 500 nM |  |  |  |  |  |  |
| C=CCn1cc(C(=O)N(C)C2CCN(c3cc(-c4cccc(OC)c4)ncn3)CC2)c2cc[nH]c2c1=O | > 20000 nM | 1600 nM |  | 1400 nM | 16 nM | 370 nM | 1100 nM | 122 µM (≈ 60.8 µg/mL) | 2000 nM | 2400 nM | 620 nM |
| C=CCn1cc(C(=O)N(C)C2CCN([C@@H](C)c3ccccc3)CC2)c2cc(C)[nH]c2c1=O | > 20000 nM | 4400 nM | > 20000 nM | 11900 nM | 190 nM |  |  |  |  |  |  |
| C=CCn1cc(C(=O)N(C)C2CCN([C@H](C)c3ccccc3)CC2)c2cc(C)[nH]c2c1=O | > 20000 nM | 3500 nM | > 20000 nM | 16500 nM | 200 nM |  |  |  |  |  |  |
| C=CCn1cc(C(=O)N(C)C2CCN(c3cc(C4CC4)nc(C)n3)CC2)c2cc[nH]c2c1=O | > 20000 nM | 3500 nM |  | 3300 nM | 52 nM |  |  |  |  |  |  |
| CN1CCC(N(C)C(=O)c2cn(C)c(=O)c3[nH]ccc23)CC1 | > 20000 nM | > 20000 nM | 17200 nM | 6100 nM | 780 nM |  |  |  |  |  |  |
| CN1CCC(NC(=O)c2cn(C)c(=O)c3[nH]ccc23)CC1 | > 20000 nM | 2400 nM | > 20000 nM | 130 nM | 1100 nM |  |  |  |  |  |  |
| CC(c1ccccc1)N1CCC(N(C)C(=O)c2cn(C)c(=O)c3[nH]ccc23)CC1 (racemic) | > 20000 nM | 11000 nM | 6100 nM | 3600 nM | 330 nM |  |  |  |  |  |  |
| C=CCn1cc(C(=O)N(C)C2CCN(C(C)c3ccccc3)CC2)c2cc[nH]c2c1=O (racemic) | > 20000 nM | > 20000 nM | > 20000 nM | 16100 nM | 500 nM |  |  |  |  |  |  |
